Molecules are shown by their SMILES.

Holding throughout (conditions): sulfur source concentration 200 µM; S. cerevisiae S288C/BY sul1Δ sul2Δ soa1Δ with transporter ortholog inserted at SOA1 locus; sulfur-free B medium, 4% glucose, pH 6.5, sole sulfur source
The test system of assay [1] is Saccharomyces eubayanus_SOA2. Nature of the assay: lag phase before growth; higher = slower start of growth.
Assay [2] concerns soa1 del. The assay is described as follows: maximal culture density with compound as sole sulfur source (OD600); higher = better growth.
The test system of assay [3] is Aspergillus nidulans_CBF74694. The assay is described as above.
Assay [4] concerns Saccharomyces eubayanus_SOA2. The description is as above.
Assay [5] has as its system Metarhizium robertsii_XP_007821441. Described as above.
In assay [6] the test system is Ogataea parapolymorpha_XP_013932458. The description is as above.
The test system of assay [7] is Saccharomyces cerevisiae_SOA1. The assay is described as above.
Assay [8] relates to Aspergillus nidulans_XP_660563. Described as above.
The test system of assay [9] is Saccharomyces uvarum_SOA2. The assay is described as above.
The test system of assay [10] is Metarhizium robertsii_XP_007823832. The assay is described as above.
In assay [11] the test system is Ogataea parapolymorpha_XP_013936897. The description is as above.
Assay [12] relates to Aspergillus nidulans_XP_661733. Described as above.
Assay [13] deals with Aspergillus nidulans (IAM 2006)_astA. The assay is described as above.
For assay [14], the system named is Aspergillus nidulans_CBF80346. The assay is described as above.
In assay [15] the test system is Metarhizium robertsii_XP_007823832. The assay is described as follows: lag phase before growth; higher = slower start of growth.
For assay [16], the system named is Aspergillus nidulans (IAM 2006)_astA. The assay is described as above.
For assay [17], the system named is Fusarium oxysporum_ENH65823. The assay is described as above.
Assay [18] has as its system Aspergillus nidulans_XP_661711. The assay is described as above.
In assay [19] the test system is Aspergillus nidulans_XP_661733. The assay is described as above.

For `CCCCS(=O)(=O)O` [Butanesulfonate], the “lag phase before growth” value in assay [1] came to 10.1 h. The maximal culture density in assay [2] came to 0.247; in assay [3], 0.2; in [4], 1.69; in assay [5], 0.246; in assay [6], 0.274; in assay [7], 1.58. For the same molecule, the maximal culture density came out at 0.355 in [8]; 1.71 in assay [9]; 0.604 in assay [10]; 0.323 in assay [11]; 0.279 in [12]; 0.596 in assay [13]. In addition, the maximal culture density in assay [14] worked out at 0.26.

On to `CCS(=O)(=O)O` [Ethanesulfonate], for which the “lag phase before growth” value in assay [1] was 13.1 h. In addition, the maximal culture density came out at 0.215 in assay [2]; 0.182 in assay [3]; 1.75 in assay [4]; 0.214 in [5]; 0.237 in assay [6]; 1.58 in [7]. In addition, the maximal culture density in assay [8] was found to be 0.314; in assay [9] it was 1.76; in [10], 0.494; in assay [11], 0.296; in assay [12] it was 0.238; in assay [13], 0.477. In addition, the maximal culture density in [14] was determined as 0.22.

As for `O=S(=O)(O)CO` [Hydroxymethane sulfonate], the “lag phase before growth” value in assay [1] was found to be 23.8 h; in assay [15], 4.31 h; in assay [16], 0.457 h. Also, the maximal culture density in assay [2] turned out to be 0.212; in assay [3], 0.203; in assay [4], 1.66; in assay [5], 1.04; in assay [6] it was 0.234; in assay [7], 1.61. In addition, the maximal culture density in [8] worked out at 0.318; in [9], 1.73; in assay [10], 1.5; in assay [11], 0.303; in assay [12], 0.267; in [13] it was 1.6. Moreover, the maximal culture density in assay [14] is 0.208.

As to `N[C@@H](CS(=O)(=O)O)C(=O)O` [L-cysteic acid], the “lag phase before growth” value in [17] was 7.6 h; in [18], 5.14 h; in assay [15] it was 7.57 h; in assay [19], 17.2 h. Further, the maximal culture density was found to be 0.254 in assay [2]; 0.451 in assay [3]; 0.254 in [4]; 0.3 in assay [5]; 0.331 in [6]; 1.46 in [7]. Moreover, the maximal culture density in [8] is 0.535; in assay [9], 0.234; in [10], 1.43; in assay [11], 0.391; in [12], 1.3; in assay [13] it was 1.41. For the same molecule, the maximal culture density in assay [14] is 0.823.

The values are drawn from the supplement of paper PMC5303821, “Major sulfonate transporter Soa1 in Saccharomyces cerevisiae and considerable substrate diversity in its fungal family” (Nature Communications, 2017).
